Reference: ChEMBL document CHEMBL4507274 (2021)

Legend:
[1] = tested on: SK-N-MC; experiment: Neuroepithelioma SK-N-MC cell line MDS Pharma Services Proliferation Assay; assay type: functional, cell-based, Homo sapiens
[2] = biological target: Casein kinase I isoform delta (Homo sapiens) (UniProt P48730); experiment: CK1delta (h) Upstate kinase activity assay; settings: Compound concentration 10.0 uM
[3] = tested on: KATO III stomach cancer cell line; experiment: Stomach KATO III cell line MDS Pharma Services Proliferation Assay; assay type: functional, cell-based, Homo sapiens
[4] = biological target: Glycogen synthase kinase-3 alpha (Homo sapiens) (UniProt P49840); experiment: GSK3alpha (h) Upstate kinase activity assay; settings: Compound concentration 10.0 uM
[5] = biological target: Rhodopsin kinase GRK7 (Homo sapiens) (UniProt Q8WTQ7); settings: Compound concentration 100.0 nM
[6] = biological target: T1, Serine/threonine-protein kinase 3 (Homo sapiens) (UniProt Q13188); experiment: MST2 (h) Upstate kinase activity assay; settings: Compound concentration 10.0 uM
T1 sequence (whole entry): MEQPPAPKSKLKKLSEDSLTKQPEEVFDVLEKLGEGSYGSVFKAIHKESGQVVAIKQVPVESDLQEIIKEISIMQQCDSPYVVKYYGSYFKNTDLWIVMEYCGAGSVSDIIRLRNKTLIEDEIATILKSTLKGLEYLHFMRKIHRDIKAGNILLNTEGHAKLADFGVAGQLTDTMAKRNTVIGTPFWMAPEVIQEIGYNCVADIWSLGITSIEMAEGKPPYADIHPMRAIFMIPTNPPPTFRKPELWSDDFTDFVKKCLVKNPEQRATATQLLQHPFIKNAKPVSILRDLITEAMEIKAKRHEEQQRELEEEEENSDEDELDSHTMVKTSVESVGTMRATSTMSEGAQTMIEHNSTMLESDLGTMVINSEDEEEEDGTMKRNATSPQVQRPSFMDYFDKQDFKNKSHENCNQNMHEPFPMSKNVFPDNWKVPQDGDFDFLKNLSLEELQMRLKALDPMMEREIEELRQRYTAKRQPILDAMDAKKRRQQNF

[7] = tested on: K562; experiment: Leukemia K562 cell line MDS Pharma Services Proliferation Assay; assay type: functional, cell-based, Homo sapiens
[8] = Lung NCI-1-1460 cell line MDS Pharma Services Proliferation Assay; assay type: functional, cell-based, Homo sapiens
[9] = biological target: Dual specificity mitogen-activated protein kinase kinase 1 (Homo sapiens) (UniProt Q02750); experiment: MEKI (h) Upstate kinase activity assay; settings: Compound concentration 10.0 uM
[10] = biological target: Protein kinase C gamma type (Homo sapiens) (UniProt P05129); experiment: PKCgamma (h) Upstate kinase activity assay; settings: Compound concentration 10.0 uM
[11] = biological target: Bone morphogenetic protein receptor type-1B (Homo sapiens) (UniProt O00238); settings: Compound concentration 100.0 nM
[12] = biological target: Serine/threonine-protein kinase MARK2 (Homo sapiens) (UniProt Q7KZI7); experiment: PAR-1Balpha (h) Upstate kinase activity assay; settings: Compound concentration 10.0 uM
[13] = biological target: Cyclin-dependent kinase 2/cyclin A (Homo sapiens) (UniProt P24941+P20248+P78396); experiment: CDK2/ cyclin A (h) Upstate kinase activity assay; assay type: protein-complex assay; settings: Compound concentration 10.0 uM
[14] = biological target: T2, Calcium/calmodulin-dependent protein kinase type IV (Homo sapiens) (UniProt Q16566); experiment: CaMKIV (h) Upstate kinase activity assay; settings: Compound concentration 10.0 uM
T2 sequence (whole entry): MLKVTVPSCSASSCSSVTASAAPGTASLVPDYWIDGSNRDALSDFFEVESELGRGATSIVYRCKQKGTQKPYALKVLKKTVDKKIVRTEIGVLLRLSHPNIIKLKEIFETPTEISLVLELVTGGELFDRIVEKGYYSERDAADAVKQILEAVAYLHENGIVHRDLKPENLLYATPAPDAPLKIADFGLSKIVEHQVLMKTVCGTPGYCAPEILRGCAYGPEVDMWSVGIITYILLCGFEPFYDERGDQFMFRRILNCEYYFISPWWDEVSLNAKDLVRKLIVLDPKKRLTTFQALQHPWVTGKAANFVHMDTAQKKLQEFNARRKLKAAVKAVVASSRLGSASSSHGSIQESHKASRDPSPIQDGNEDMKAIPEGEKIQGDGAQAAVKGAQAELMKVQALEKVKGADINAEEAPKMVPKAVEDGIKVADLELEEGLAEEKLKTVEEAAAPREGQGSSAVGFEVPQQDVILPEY

[15] = biological target: Serine/threonine-protein kinase N2 (Homo sapiens) (UniProt Q16513); experiment: PRK2 (h) Upstate kinase activity assay; settings: Compound concentration 10.0 uM
[16] = tested on: PC-6; experiment: Lung PC-6 cell line MDS Pharma Services Proliferation Assay; assay type: functional, cell-based, Homo sapiens
[17] = biological target: Serine/threonine-protein kinase DCLK1 (Homo sapiens) (UniProt O15075); settings: Compound concentration 100.0 nM
[18] = biological target: Mitogen-activated protein kinase kinase kinase 20 (Homo sapiens) (UniProt Q9NYL2); settings: Compound concentration 100.0 nM
[19] = tested on: Epidermal growth factor receptor (Homo sapiens), P00533 [G719S]; settings: Compound concentration 100.0 nM

Sequence of Serine/threonine-protein kinase DCLK1 (Homo sapiens) (O15075 whole entry): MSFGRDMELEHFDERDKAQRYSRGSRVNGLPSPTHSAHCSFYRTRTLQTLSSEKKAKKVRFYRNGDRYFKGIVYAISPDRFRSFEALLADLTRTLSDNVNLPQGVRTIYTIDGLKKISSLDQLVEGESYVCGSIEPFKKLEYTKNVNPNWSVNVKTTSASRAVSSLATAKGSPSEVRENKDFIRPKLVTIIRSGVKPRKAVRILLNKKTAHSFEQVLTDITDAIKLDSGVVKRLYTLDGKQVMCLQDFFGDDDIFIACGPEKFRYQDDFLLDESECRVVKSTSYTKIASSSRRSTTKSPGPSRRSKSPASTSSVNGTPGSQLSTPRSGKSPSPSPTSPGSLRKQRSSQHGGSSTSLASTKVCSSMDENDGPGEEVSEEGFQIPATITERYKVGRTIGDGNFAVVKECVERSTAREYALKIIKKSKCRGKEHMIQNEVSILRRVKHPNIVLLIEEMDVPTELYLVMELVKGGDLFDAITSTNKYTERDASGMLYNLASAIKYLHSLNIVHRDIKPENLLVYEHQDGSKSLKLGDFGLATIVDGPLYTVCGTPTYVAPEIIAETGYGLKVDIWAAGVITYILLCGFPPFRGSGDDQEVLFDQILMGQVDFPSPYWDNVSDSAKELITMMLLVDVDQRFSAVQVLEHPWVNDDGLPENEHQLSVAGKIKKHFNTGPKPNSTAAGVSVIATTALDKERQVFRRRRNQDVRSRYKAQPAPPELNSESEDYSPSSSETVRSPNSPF
Sequence of Bone morphogenetic protein receptor type-1B (Homo sapiens) (O00238 whole entry): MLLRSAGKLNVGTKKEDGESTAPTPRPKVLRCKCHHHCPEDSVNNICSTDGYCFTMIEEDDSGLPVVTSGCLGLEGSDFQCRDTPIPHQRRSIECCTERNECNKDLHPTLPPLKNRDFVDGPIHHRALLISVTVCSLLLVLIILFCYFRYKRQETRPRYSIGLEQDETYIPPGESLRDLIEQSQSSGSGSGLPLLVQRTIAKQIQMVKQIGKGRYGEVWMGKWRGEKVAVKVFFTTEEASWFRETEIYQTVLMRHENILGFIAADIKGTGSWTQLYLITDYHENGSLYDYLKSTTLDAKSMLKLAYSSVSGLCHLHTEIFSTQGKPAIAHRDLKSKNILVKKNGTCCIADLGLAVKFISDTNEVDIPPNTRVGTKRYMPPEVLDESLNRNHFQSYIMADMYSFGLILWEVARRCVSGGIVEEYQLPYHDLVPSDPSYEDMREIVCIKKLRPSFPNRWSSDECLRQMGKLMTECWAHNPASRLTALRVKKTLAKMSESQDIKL
Sequence of Rhodopsin kinase GRK7 (Homo sapiens) (Q8WTQ7 whole entry): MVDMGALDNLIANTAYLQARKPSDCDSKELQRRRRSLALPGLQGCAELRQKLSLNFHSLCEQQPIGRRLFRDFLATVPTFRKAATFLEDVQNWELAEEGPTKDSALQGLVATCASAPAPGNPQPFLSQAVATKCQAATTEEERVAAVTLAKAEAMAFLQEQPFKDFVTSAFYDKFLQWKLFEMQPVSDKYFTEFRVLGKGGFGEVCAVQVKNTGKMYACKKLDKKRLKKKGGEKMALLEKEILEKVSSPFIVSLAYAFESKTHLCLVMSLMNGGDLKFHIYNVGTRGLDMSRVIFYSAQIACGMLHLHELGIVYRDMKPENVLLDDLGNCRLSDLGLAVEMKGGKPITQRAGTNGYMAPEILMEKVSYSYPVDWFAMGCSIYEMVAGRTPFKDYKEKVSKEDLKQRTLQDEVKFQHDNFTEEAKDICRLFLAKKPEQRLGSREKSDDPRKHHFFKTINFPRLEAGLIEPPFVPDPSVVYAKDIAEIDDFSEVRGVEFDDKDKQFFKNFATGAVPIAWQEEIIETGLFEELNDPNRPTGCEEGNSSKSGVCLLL
Sequence of Mitogen-activated protein kinase kinase kinase 20 (Homo sapiens) (Q9NYL2 2-800 limits assumed): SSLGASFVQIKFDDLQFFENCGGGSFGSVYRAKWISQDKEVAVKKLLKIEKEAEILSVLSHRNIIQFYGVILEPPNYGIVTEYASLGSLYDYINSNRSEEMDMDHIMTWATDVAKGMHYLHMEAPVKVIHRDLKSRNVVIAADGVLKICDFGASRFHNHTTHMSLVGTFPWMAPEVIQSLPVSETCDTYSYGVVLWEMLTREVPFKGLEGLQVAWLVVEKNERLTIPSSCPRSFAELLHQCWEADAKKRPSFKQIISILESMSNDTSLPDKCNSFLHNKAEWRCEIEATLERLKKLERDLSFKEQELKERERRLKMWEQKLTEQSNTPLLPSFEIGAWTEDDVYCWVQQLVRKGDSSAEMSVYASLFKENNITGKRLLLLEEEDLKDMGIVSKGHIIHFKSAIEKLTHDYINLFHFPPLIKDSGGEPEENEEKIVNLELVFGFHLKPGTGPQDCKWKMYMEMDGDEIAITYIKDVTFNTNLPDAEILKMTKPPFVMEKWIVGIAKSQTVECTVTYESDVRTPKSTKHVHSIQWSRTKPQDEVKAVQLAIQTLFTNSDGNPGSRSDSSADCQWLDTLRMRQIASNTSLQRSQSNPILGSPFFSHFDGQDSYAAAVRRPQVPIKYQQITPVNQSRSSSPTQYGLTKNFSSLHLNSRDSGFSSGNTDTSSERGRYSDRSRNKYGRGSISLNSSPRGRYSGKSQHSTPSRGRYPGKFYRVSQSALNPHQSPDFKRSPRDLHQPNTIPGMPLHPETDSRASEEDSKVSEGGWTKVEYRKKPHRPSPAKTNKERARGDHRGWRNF
Sequence of Serine/threonine-protein kinase N2 (Homo sapiens) (Q16513 whole entry, looked up): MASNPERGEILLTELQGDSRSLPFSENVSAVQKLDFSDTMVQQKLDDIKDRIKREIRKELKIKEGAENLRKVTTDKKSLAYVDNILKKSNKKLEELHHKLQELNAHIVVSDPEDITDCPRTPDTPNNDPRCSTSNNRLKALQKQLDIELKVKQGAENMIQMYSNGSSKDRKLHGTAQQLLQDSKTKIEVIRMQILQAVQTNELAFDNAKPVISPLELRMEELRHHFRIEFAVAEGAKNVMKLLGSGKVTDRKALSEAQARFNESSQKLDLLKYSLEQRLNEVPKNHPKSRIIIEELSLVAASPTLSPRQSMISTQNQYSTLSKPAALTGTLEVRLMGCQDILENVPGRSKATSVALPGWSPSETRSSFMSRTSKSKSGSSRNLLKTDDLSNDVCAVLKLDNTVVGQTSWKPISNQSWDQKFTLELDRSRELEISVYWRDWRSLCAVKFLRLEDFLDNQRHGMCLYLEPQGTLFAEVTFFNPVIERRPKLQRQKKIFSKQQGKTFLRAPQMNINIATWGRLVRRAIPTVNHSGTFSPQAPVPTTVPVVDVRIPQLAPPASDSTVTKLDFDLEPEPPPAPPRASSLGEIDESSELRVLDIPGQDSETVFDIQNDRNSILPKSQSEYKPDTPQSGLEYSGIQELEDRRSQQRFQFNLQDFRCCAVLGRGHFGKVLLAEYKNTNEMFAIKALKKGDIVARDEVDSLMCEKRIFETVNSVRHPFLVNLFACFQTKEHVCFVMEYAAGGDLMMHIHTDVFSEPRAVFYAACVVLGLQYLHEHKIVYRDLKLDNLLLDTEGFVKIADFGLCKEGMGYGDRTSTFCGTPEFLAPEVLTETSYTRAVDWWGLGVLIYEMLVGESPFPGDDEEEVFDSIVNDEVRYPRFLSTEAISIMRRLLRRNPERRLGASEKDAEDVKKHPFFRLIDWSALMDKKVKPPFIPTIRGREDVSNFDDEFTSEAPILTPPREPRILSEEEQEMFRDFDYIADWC
Sequence of Glycogen synthase kinase-3 alpha (Homo sapiens) (P49840 2-483 limits assumed): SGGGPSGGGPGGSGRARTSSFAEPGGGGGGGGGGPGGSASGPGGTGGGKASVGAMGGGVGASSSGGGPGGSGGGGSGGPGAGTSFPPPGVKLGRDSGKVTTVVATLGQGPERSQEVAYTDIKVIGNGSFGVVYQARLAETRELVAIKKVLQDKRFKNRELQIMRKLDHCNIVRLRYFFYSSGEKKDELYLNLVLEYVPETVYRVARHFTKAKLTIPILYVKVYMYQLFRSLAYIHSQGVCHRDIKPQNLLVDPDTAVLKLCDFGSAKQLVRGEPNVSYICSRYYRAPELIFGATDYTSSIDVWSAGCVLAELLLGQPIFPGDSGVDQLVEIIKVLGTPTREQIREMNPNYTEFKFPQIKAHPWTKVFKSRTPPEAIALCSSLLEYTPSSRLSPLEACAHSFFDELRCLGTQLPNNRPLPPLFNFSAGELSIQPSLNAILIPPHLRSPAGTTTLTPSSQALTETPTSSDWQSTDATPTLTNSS
Sequence of Dual specificity mitogen-activated protein kinase kinase 1 (Homo sapiens) (Q02750 whole entry): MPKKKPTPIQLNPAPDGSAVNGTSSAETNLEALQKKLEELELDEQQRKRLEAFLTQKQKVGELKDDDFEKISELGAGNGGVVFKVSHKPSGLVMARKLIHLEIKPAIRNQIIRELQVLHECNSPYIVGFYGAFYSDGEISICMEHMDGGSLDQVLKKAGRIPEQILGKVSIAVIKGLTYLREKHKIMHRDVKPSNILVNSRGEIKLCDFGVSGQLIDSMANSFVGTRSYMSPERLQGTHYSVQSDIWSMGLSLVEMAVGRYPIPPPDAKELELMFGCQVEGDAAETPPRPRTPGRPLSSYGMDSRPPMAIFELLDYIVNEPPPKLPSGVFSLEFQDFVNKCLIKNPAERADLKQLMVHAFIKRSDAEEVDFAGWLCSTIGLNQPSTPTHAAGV
Sequence of Casein kinase I isoform delta (Homo sapiens) (P48730 whole entry, looked up, canonical isoform): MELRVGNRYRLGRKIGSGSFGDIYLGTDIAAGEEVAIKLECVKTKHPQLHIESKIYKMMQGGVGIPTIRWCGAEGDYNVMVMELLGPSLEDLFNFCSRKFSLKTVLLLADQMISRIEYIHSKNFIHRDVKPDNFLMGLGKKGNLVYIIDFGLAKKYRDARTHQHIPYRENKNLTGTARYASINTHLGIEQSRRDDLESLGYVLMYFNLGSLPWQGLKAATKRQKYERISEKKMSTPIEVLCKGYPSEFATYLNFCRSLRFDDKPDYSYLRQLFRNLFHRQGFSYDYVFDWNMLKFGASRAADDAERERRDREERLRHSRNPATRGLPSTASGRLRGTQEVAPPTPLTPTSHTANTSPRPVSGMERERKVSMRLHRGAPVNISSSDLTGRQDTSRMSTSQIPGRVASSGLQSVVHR

Cc1c[nH]c2nccc(Oc3c(F)cc(Nc4cc(Cl)nc(N)n4)cc3F)c12 [BAY-549]
IC50 ([1]; Homo sapiens, SK-N-MC): 7.9 µM
TGI ([1]; Homo sapiens, SK-N-MC): 20 µM
CC50 ([1]; Homo sapiens, SK-N-MC, read-out: LC50 (the source's name)): 52 µM
Mean % growth (n = 2) for 10.0 µM probe concentration ([1]; ± SEM 3 % growth): 38%
Mean % growth (n = 2) for 0.1 µM probe concentration ([1]; ± SEM 4 % growth): 103%
Mean % growth (n = 2) for 1.0 µM probe concentration ([1]; ± SEM 5 % growth): 98%
Mean % growth (n = 2) for 0.01 µM probe concentration ([1]; ± SEM 6 % growth): 103%
Mean % growth (n = 2) for 100.0 µM probe concentration ([1]; ± SEM 8 % growth): -72%
inhibition [2]: 65%
IC50 ([3]; Homo sapiens, KATO III): 3.2 µM
TGI ([3]; Homo sapiens, KATO III): > 100 µM
CC50 ([3]; Homo sapiens, KATO III, read-out: LC50 (the source's name)): > 100 µM
Mean % growth (n = 2) for 0.01 µM probe concentration ([3]; ± SEM 7 % growth): 98%
Mean % growth (n = 2) for 10.0 µM probe concentration ([3]; ± SEM 7 % growth): 27%
Mean % growth (n = 2) for 100.0 µM probe concentration ([3]; ± SEM 7 % growth): 19%
Mean % growth (n = 2) for 1.0 µM probe concentration ([3]; ± SEM 8 % growth): 66%
Mean % growth (n = 2) for 0.1 µM probe concentration ([3]; ± SEM 11 % growth): 99%
inhibition [4]: 13%
residual activity [5]: 68%
inhibition [6]: 59%
IC50 ([7]; Homo sapiens, K562): 8.3 µM
TGI ([7]; Homo sapiens, K562): > 100 µM
CC50 ([7]; Homo sapiens, K562, read-out: LC50 (the source's name)): > 100 µM
Mean % growth (n = 2) for 10.0 µM probe concentration ([7]; ± SEM 3 % growth): 42%
Mean % growth (n = 2) for 1.0 µM probe concentration ([7]; ± SEM 4 % growth): 69%
Mean % growth (n = 2) for 0.1 µM probe concentration ([7]; ± SEM 5 % growth): 92%
Mean % growth (n = 2) for 100.0 µM probe concentration ([7]; ± SEM 6 % growth): 32%
Mean % growth (n = 2) for 0.01 µM probe concentration ([7]; ± SEM 7 % growth): 95%
TGI ([8]; Homo sapiens, Lung NCI-1-1460): 11 µM
CC50 ([8]; Homo sapiens, Lung NCI-1-1460, read-out: LC50 (the source's name)): > 100 µM
Mean % growth (n = 2) for 0.01 µM probe concentration ([8]; ± SEM 1 % growth): 98%
Mean % growth (n = 2) for 10.0 µM probe concentration ([8]; ± SEM 1 % growth): 2%
Mean % growth (n = 2) for 1.0 µM probe concentration ([8]; ± SEM 2 % growth): 50%
Mean % growth (n = 2) for 0.1 µM probe concentration ([8]; ± SEM 3 % growth): 82%
Mean % growth (n = 2) for 100.0 µM probe concentration ([8]; ± SEM 12 % growth): -45%
inhibition [9]: 9%
inhibition [10]: 33%
residual activity [11]: 68%
inhibition [12]: 33%
inhibition [13]: 20%
inhibition [14]: -8%
inhibition [15]: 70%
IC50 ([16]; Homo sapiens, PC-6): 4.2 µM
TGI ([16]; Homo sapiens, PC-6): 18 µM
CC50 ([16]; Homo sapiens, PC-6, read-out: LC50 (the source's name)): 76 µM
Mean % growth (n = 2) for 0.1 µM probe concentration ([16]; ± SEM 5 % growth): 84%
Mean % growth (n = 2) for 100.0 µM probe concentration ([16]; ± SEM 6 % growth): -65%
Mean % growth (n = 2) for 10.0 µM probe concentration ([16]; ± SEM 7 % growth): 32%
Mean % growth (n = 2) for 0.01 µM probe concentration ([16]; ± SEM 9 % growth): 105%
Mean % growth (n = 2) for 1.0 µM probe concentration ([16]; ± SEM 9 % growth): 70%
residual activity [17]: 65%

Cn1cc(Cl)c2c(Oc3c(F)cc(Nc4cc(Cl)nc(N)n4)cc3F)ccnc21 [BAY-4900]
residual activity [18]: 97%
residual activity [5]: 82%
residual activity [11]: 86%
residual activity [19]: 98%
residual activity [17]: 85%
